Test results: article PMC9019904, “AD Informer Set: Chemical tools to facilitate Alzheimer's disease drug discovery” (Alzheimer's & Dementia : Translational Research & Clinical …, 2022)
Values after ≈ are worked out from the molar mass of the structure shown. Read-outs that look alike come from different tables or passages of the source.

Columns and labels:
[1] = tested on: protein product expressed by the gene target; settings: cited from earlier work
[2] = physchem; settings: pH 7.4, aqueous buffer, kinetic from dmso stock
[3] = tested on: BV2 (mouse microglia) cell line; test: pHrodo-myelin phagocytosis/cell viability high content imaging assay: viability (cell count, nuclear area, nuclear intensity)
Summary of the method: (§1)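 BV2 mouse and HMC3 human microglia were treated with compounds at 10 μM for 48 h, with pHrodo-myelin present for the last 20 h. Viability was imaged as total cell count per well and mean nuclear intensity per cell. Values are means of duplicates, normalized to untreated wells as % control.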

[4] = tested on: HMC3 (human microglia) cell line; test: pHrodo-myelin phagocytosis/cell viability high content imaging assay: phagocytosis signal; assay type: cell-based
Summary of the method: (§2)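 Mouse BV2 and human HMC3 microglia given pHrodo-myelin; phagocytosis and cell viability imaged together by high content imaging about 22 hours after myelin addition. Three measurements extracted, including intensity increase and decrease marking early and later apoptosis.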

[5] = tested on: BV2 (mouse microglia) cell line; test: as above; assay type: cell-based
Summary of the method: as §2

[6] = tested on: cellular system; settings: cited from earlier work
[7] = Kinetic solubility in aqueous buffer pH 7.4 by total chemiluminescent nitrogen determination (Analiza); settings: aqueous buffer, pH 7.4, aqueous buffer, kinetic from dmso stock
[8] = tested on: HMC3 (human microglia) cell line; test: pHrodo-myelin phagocytosis/cell viability high content imaging assay: viability (cell count, nuclear area, nuclear intensity); settings: HMC3, 10 μM
Summary of the method: as §1

[9] = published cellular activity at 10 μM
[10] = BV2 cells, 10 μM, cell count <70% control

Q: For `Cl.NCCOCCOCCNC(=O)Cc1ccc(Nc2nc(NCc3ccc(F)cc3)nc(NCC3CCCCC3)n2)cc1` [ENOblock (AP-III-a4)], which “Reported on-target biochemical potency” value ([1]; gene target ENO1, ref Probe Miner, PubMed 30679508, 28272459) is on record?
A: 576 nM

Q: And the solubility kinetic [2]?
A: 76.8 µM

Q: And the “Mouse microglial cytotoxicity at 10 μM (<70% control)” value ([3]; BV2, 10 μM)?
A: Y (The compound was found to be cytotoxic (cell count threshold: <70% control) when murine immortalized microglial cells were dosed at 10 μM (Y: yes))

Q: What about the “Inhibition of human microglial phagocytosis at 10 μM (<70% control)” value ([4]; HMC3, 10 μM) of the same compound?
A: Y (The compound was found to inhibit phagocytosis (response threshold: <70% control) when human immortalized microglial cells were dosed at 10 μM (Y: yes))

Q: And the “Stimulation of mouse microglial phagocytosis at 10 μM (>150% control)” value ([5]; BV2, 10 μM)?
A: Y (The compound was found to stimulate phagocytosis (response threshold: >150% control) when murine immortalized microglial cells were dosed at 10 μM (Y: yes))

Q: With `CNC(=O)[C@H](Cc1c[nH]c2ccccc12)NC(=O)[C@@H](CC(=O)NO)CC(C)C` [Ilomastat] as the compound, how does the “Reported on-target biochemical potency” value ([1]; target gene MMP17, ref Probe Miner, PubMed 33513143) read?
A: 3.4 nM

Q: And the solubility kinetic [2]?
A: 104 µM (≈ 40.2 µg/mL)

Q: Which “Reported on-target biochemical potency” value ([1]; gene target FADS1 and FADS2, ref PubMed 11939906, 27832159, 9605428) does the source give for `CC(C)CCOc1ccc(N)cc1` [CP-24879] here?
A: 3400 nM

Q: What about the solubility kinetic [2] of the same compound?
A: 56.8 µM (≈ 10.2 µg/mL)

Q: Which “Reported on-target biochemical potency (nM)” value ([1]; SIG-1R (genes listed: SIG-1R and CHRM2), ref PubMed 20829307, 29127580) does the source give for `CN(C)CC1CCOC1(c1ccccc1)c1ccccc1.Cl` (stereo not drawn) [AN2/AVex-73 HCl (Blarcamesine)] here?
A: SIG-1R = 860 nM

Q: And the solubility kinetic [2]?
A: 174 µM

Q: What about the “Reported as cell active (<10 μM)” value [6, 9] of the same compound?
A: Y (Published data supports that the compound is active in a cellular system when dosed at 10 μM (Y/N))

Q: And the “Stimulation of mouse microglial phagocytosis at 10 μM (>150% control)” value ([5]; BV2 cells, 10 μM)?
A: Y (The compound was found to stimulate phagocytosis (response threshold: >150% control) when murine immortalized microglial cells were dosed at 10 μM (Y: yes))

Q: With `COCC(=O)O[C@]1(CCN(C)CCCc2nc3ccccc3[nH]2)CCc2cc(F)ccc2[C@@H]1C(C)C` [Mibefradil] as the compound, how does the “Reported on-target biochemical potency” value [1] read?
A: 980 nM

Q: What about the solubility kinetic [7] of the same compound?
A: 128 µM (≈ 63.4 µg/mL)

Q: What about the “Reported as cell active (<10 μM)” value [6] of the same compound?
A: Y (key: Published data supports that the compound is active in a cellular system when dosed at 10 μM (Y/N); Published data supports that the compound is active in a cellular system when dosed at 10 μM (Y/N))

Q: What about the “Mouse microglial cytotoxicity at 10 μM (<70% control)” value [3, 10] of the same compound?
A: Y (The compound was found to be cytotoxic (cell count threshold: <70% control) when murine immortalized microglial cells were dosed at 10 μM (Y: yes))

Q: And the “Inhibition of human microglial phagocytosis at 10 μM (<70% control)” value ([4]; HMC3 cells, 10 μM)?
A: Y (The compound was found to inhibit phagocytosis (response threshold: <70% control) when human immortalized microglial cells were dosed at 10 μM (Y: yes))

Q: What about the “Inhibition of mouse microglial phagocytosis at 10 μM (<70% control)” value ([5]; BV2 cells, 10 μM) of the same compound?
A: Y (The compound was found to inhibit phagocytosis (response threshold: <70% control) when murine immortalized microglial cells were dosed at 10 μM (Y: yes))

Q: For `COc1ccc2[nH]c([S+]([O-])Cc3ncc(C)c(OC)c3C)nc2n1` (stereo not drawn) [Tenatoprazole], which “Reported on-target biochemical potency” value ([1]; gene target DHTKD1, ref PubMed 32633484) is on record?
A: 2700 nM

Q: And the solubility kinetic [2]?
A: 131 µM (≈ 45.4 µg/mL)

Q: Which results are given for `CCN(C)C(=O)Oc1cccc([C@H](C)N(C)C)c1` [Rivastigmine]?
A: Reported on-target biochemical potency (nM): BChE ([1]; gene target BCHE, ref PubMed 23469045, 12166941): 37 nM; solubility kinetic [2]: 160 µM (≈ 40 µg/mL); Stimulation of mouse microglial phagocytosis at 10 μM (>150% control) ([5]; BV2, 10 μM): Y (The compound was found to stimulate phagocytosis (response threshold: >150% control) when murine immortalized microglial cells were dosed at 10 μM (Y: yes))

Q: What does the source list for `CN(C)CCCN1c2ccccc2Sc2ccc(Cl)cc21` [Chlorpromazine]?
A: Reported on-target biochemical potency [1]: >1000 nM; solubility kinetic [2]: 102 µM (≈ 32.6 µg/mL); Reported as cell active (<10 μM) [6]: N

Q: With `c1cn2cc(-c3ccc4cn[nH]c4c3)nc(Nc3ccc(N4CCOCC4)cc3)c2n1` [Entospletinib (GS-9973)] as the compound, how does the “Reported on-target biochemical potency” value [1] read?
A: 7.7 nM

Q: What about the solubility kinetic [2] of the same compound?
A: 0.5 µM (≈ 0.206 µg/mL)

Q: What about the “Reported as cell active (<10 μM)” value [6, 9] of the same compound?
A: Y (Published data supports that the compound is active in a cellular system when dosed at 10 μM (Y/N))

Q: What about the “Mouse microglial cytotoxicity at 10 μM (<70% control)” value [3, 10] of the same compound?
A: Y (The compound was found to be cytotoxic (cell count threshold: <70% control) when murine immortalized microglial cells were dosed at 10 μM (Y: yes))

Q: What about the “Inhibition of human microglial phagocytosis at 10 μM (<70% control)” value ([4]; HMC3 cells, 10 μM) of the same compound?
A: Y (The compound was found to inhibit phagocytosis (response threshold: <70% control) when human immortalized microglial cells were dosed at 10 μM (Y: yes))

Q: And the “Inhibition of mouse microglial phagocytosis at 10 μM (<70% control)” value ([5]; BV2 cells, 10 μM)?
A: Y (The compound was found to inhibit phagocytosis (response threshold: <70% control) when murine immortalized microglial cells were dosed at 10 μM (Y: yes))

Q: Which “Reported on-target biochemical potency” value ([1]; gene target CDK9, ref PubMed 20663931, 25289887, 21768779) does the source give for `CCc1cnn2c(NCc3ccc[n+]([O-])c3)cc(N3CCCC[C@H]3CCO)nc12` [Dinaciclib] here?
A: 4 nM

Q: What about the solubility kinetic [2] of the same compound?
A: 143 µM (≈ 56.8 µg/mL)

Q: And the “Human microglial cytotoxicity at 10 μM (<70% control)” value [8]?
A: Y (The compound was found to be cytotoxic (cell count threshold: <70% control) when human immortalized microglial cells were dosed at 10 μM (Y: yes))

Q: What about the “Mouse microglial cytotoxicity at 10 μM (<70% control)” value ([3]; BV2, 10 μM) of the same compound?
A: Y (The compound was found to be cytotoxic (cell count threshold: <70% control) when murine immortalized microglial cells were dosed at 10 μM (Y: yes))

Q: And the “Stimulation of human microglial phagocytosis at 10 μM (>150% control)” value ([4]; HMC3, 10 μM)?
A: Y (The compound was found to stimulate phagocytosis (response threshold: >150% control) when human immortalized microglial cells were dosed at 10 μM (Y: yes))

Q: And the “Inhibition of mouse microglial phagocytosis at 10 μM (<70% control)” value ([5]; BV2, 10 μM)?
A: Y (The compound was found to inhibit phagocytosis (response threshold: <70% control) when murine immortalized microglial cells were dosed at 10 μM (Y: yes))

Q: Which results are given for `Clc1ccccc1C(c1ccccc1)(c1ccccc1)n1ccnc1` [Clotrimazole]?
A: Reported on-target biochemical potency ([1]; gene target CYP19A1, ref Probe Miner): 1.8 nM; solubility kinetic [2]: 4.2 µM (≈ 1.45 µg/mL); Mouse microglial cytotoxicity at 10 μM (<70% control) ([3]; BV2, 10 μM): Y (The compound was found to be cytotoxic (cell count threshold: <70% control) when murine immortalized microglial cells were dosed at 10 μM (Y: yes))
